Assays:
[1] = target: Carbonic anhydrase 2 (Homo sapiens, UniProt P00918)
[2] = target: Carbonic anhydrase 1 (Homo sapiens, UniProt P00915)
[3] = target: Carbonic anhydrase 14 (Homo sapiens, UniProt Q9ULX7)
[4] = target: Carbonic anhydrase 12 (Homo sapiens, UniProt O43570)
[5] = Solubility of the compound in water; assay type: physicochemical
[6] = target: Carbonic anhydrase 9 (Homo sapiens, UniProt Q16790)

Sequence of Carbonic anhydrase 1 (P00915 whole entry): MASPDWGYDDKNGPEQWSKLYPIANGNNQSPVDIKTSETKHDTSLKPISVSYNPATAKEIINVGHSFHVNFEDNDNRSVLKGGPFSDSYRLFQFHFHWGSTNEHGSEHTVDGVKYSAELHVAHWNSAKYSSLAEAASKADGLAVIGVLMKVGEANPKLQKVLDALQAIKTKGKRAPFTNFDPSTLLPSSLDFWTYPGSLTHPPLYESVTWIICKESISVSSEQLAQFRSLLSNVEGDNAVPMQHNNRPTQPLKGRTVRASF
Sequence of Carbonic anhydrase 14 (Q9ULX7 whole entry): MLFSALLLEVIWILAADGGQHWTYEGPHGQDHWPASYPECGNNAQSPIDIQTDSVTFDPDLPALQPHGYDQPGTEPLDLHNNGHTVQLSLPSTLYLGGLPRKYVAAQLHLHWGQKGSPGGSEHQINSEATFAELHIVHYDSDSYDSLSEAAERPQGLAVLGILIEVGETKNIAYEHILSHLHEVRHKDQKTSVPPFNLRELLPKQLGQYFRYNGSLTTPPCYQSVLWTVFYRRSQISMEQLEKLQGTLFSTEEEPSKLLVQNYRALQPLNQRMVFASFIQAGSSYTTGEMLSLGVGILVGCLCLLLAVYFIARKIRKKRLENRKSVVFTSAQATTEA
Sequence of Carbonic anhydrase 12 (O43570 whole entry): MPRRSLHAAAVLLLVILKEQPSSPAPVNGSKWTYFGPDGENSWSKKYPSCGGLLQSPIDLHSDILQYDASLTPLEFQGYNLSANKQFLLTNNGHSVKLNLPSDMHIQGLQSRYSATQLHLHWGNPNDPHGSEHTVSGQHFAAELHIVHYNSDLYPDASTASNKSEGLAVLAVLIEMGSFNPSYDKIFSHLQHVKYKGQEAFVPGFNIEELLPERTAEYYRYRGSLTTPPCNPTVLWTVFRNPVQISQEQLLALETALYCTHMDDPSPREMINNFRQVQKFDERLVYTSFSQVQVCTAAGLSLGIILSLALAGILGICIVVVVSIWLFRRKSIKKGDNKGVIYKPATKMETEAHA

SMILES	Ki [1] [µM]	Ki [2] [µM]	Ki [3] [µM]	Ki [4] [µM]	solubility [5] [mg/mL]	Ki [6] [µM]
NS(=O)(=O)c1ccc(C(=O)NNC(=S)N[C@@H]2O[C@H](CO)[C@H](O)[C@H](O)[C@H]2O)cc1	0.344	4.04	0.0082	0.0085	> 20	–
NS(=O)(=O)c1ccc(C(=O)NNC(=S)N[C@@H]2O[C@H](CO)[C@@H](O)[C@H](O)[C@H]2O)cc1	0.525	7.88	0.008	0.0086	> 20	–
NS(=O)(=O)c1ccc(CNC(=S)N[C@@H]2O[C@H](CO)[C@H](O)[C@H](O)[C@H]2O)cc1	0.06	6.42	0.129	0.111	> 20	0.0069
CC(=O)OC[C@H]1O[C@@H](NC(=S)Nc2ccc(S(N)(=O)=O)cc2)[C@H](OC(C)=O)[C@@H](OC(C)=O)[C@H]1OC(C)=O	0.524	6.71	0.126	0.0456	–	–
NS(=O)(=O)c1ccc(CCNC(=S)N[C@@H]2O[C@H](CO)[C@@H](O[C@@H]3O[C@H](CO)[C@H](O)[C@H](O)[C@H]3O)[C@H](O)[C@H]2O)cc1	0.009	0.1	0.0084	0.0135	> 20	0.0089
NS(=O)(=O)c1ccc(CCNC(=S)N[C@@H]2O[C@H](CO)[C@@H](O[C@H]3O[C@H](CO)[C@@H](O)[C@H](O)[C@H]3O)[C@H](O)[C@H]2O)cc1	0.271	4.26	0.0078	0.0098	> 20	0.0021
CC(=O)OC[C@H]1O[C@@H](NC(=S)NCCc2ccc(S(N)(=O)=O)cc2)[C@H](OC(C)=O)[C@@H](OC(C)=O)[C@@H]1OC(C)=O	0.0073	5.51	0.0088	0.0089	–	0.451
NS(=O)(=O)c1ccc(CNC(=S)N[C@@H]2O[C@H](CO)[C@@H](O)[C@H](O)[C@H]2O)cc1	0.377	7.5	0.016	0.0082	> 20	–
CC(=O)OC[C@H]1O[C@@H](NC(=S)Nc2ccc(S(N)(=O)=O)cc2)[C@H](OC(C)=O)[C@@H](OC(C)=O)[C@@H]1O[C@H]1O[C@H](COC(C)=O)[C@@H](OC(C)=O)[C@H](OC(C)=O)[C@H]1OC(C)=O	0.539	6.04	0.0079	0.0101	–	–
NS(=O)(=O)c1ccc(NC(=S)N[C@@H]2O[C@H](CO)[C@@H](O)[C@H](O)[C@H]2O)cc1	0.007	7.68	0.041	0.0082	> 20	0.282
CC(=O)OC[C@H]1O[C@@H](NC(=S)NCCc2ccc(S(N)(=O)=O)cc2)[C@H](OC(C)=O)[C@@H](OC(C)=O)[C@H]1OC(C)=O	0.297	0.1	0.0087	0.0088	–	0.433
CC(=O)OC[C@H]1O[C@@H](O[C@H]2[C@H](OC(C)=O)[C@@H](OC(C)=O)[C@H](NC(=S)NCc3ccc(S(N)(=O)=O)cc3)O[C@@H]2COC(C)=O)[C@H](OC(C)=O)[C@@H](OC(C)=O)[C@H]1OC(C)=O	0.39	0.11	0.0085	0.0074	–	–
NS(=O)(=O)c1ccc(CNC(=S)N[C@@H]2O[C@H](CO)[C@@H](O[C@H]3O[C@H](CO)[C@@H](O)[C@H](O)[C@H]3O)[C@H](O)[C@H]2O)cc1	0.376	6.3	0.0085	0.0125	> 20	0.0084

Now from value to compound:

Ki [1] [µM]	Ki [2] [µM]	Ki [3] [µM]	Ki [4] [µM]	solubility [5] [mg/mL]	Ki [6] [µM]	SMILES
0.0102	2.94	0.0105	0.0076	–	–	CC(=O)OC[C@H]1O[C@@H](NC(=S)NNC(=O)c2ccc(S(N)(=O)=O)cc2)[C@H](OC(C)=O)[C@@H](OC(C)=O)[C@@H]1O[C@H]1O[C@H](COC(C)=O)[C@@H](OC(C)=O)[C@H](OC(C)=O)[C@H]1OC(C)=O
0.105	4.06	0.044	0.0079	> 20	0.0083	NS(=O)(=O)c1ccc(CNC(=S)N[C@@H]2O[C@H](CO)[C@@H](O[C@@H]3O[C@H](CO)[C@H](O)[C@H](O)[C@H]3O)[C@H](O)[C@H]2O)cc1
0.222	6.84	0.125	0.0201	> 20	–	NS(=O)(=O)c1ccc(NC(=S)N[C@@H]2O[C@H](CO)[C@H](O)[C@H](O)[C@H]2O)cc1
0.108	0.009	0.008	0.0097	> 20	0.0087	NS(=O)(=O)c1ccc(CCNC(=S)N[C@@H]2O[C@H](CO)[C@@H](O)[C@H](O)[C@H]2O)cc1
0.109	–	0.0086	0.0082	> 20	–	NS(=O)(=O)c1ccc(C(=O)NNC(=S)N[C@@H]2O[C@H](CO)[C@@H](O[C@H]3O[C@H](CO)[C@@H](O)[C@H](O)[C@H]3O)[C@H](O)[C@H]2O)cc1
0.0074	–	0.0085	0.0087	> 20	–	NS(=O)(=O)c1ccc(C(=O)NNC(=S)N[C@@H]2O[C@H](CO)[C@@H](O[C@@H]3O[C@H](CO)[C@H](O)[C@H](O)[C@H]3O)[C@H](O)[C@H]2O)cc1
0.0076	0.1	0.0086	0.0082	–	–	CC(=O)OC[C@H]1O[C@@H](O[C@H]2[C@H](OC(C)=O)[C@@H](OC(C)=O)[C@H](NC(=S)Nc3ccc(S(N)(=O)=O)cc3)O[C@@H]2COC(C)=O)[C@H](OC(C)=O)[C@@H](OC(C)=O)[C@H]1OC(C)=O
0.0086	6.41	0.0107	0.0078	–	0.0033	CC(=O)OC[C@H]1O[C@@H](NC(=S)NNC(=O)c2ccc(S(N)(=O)=O)cc2)[C@H](OC(C)=O)[C@@H](OC(C)=O)[C@H]1OC(C)=O
0.007	4.93	0.0083	0.0072	–	–	CC(=O)OC[C@H]1O[C@@H](NC(=S)Nc2ccc(S(N)(=O)=O)cc2)[C@H](OC(C)=O)[C@@H](OC(C)=O)[C@@H]1OC(C)=O
0.0069	7.98	0.055	0.081	> 20	0.258	NS(=O)(=O)c1ccc(NC(=S)N[C@@H]2O[C@H](CO)[C@@H](O[C@@H]3O[C@H](CO)[C@H](O)[C@H](O)[C@H]3O)[C@H](O)[C@H]2O)cc1
0.0119	6.34	0.807	0.1	–	–	CC(=O)OC[C@H]1O[C@@H](NC(=S)NCc2ccc(S(N)(=O)=O)cc2)[C@H](OC(C)=O)[C@@H](OC(C)=O)[C@H]1OC(C)=O
0.0075	7.92	0.0098	0.3	> 20	0.0084	NS(=O)(=O)c1ccc(NC(=S)N[C@@H]2O[C@H](CO)[C@@H](O[C@H]3O[C@H](CO)[C@@H](O)[C@H](O)[C@H]3O)[C@H](O)[C@H]2O)cc1
0.0073	4.57	0.0086	0.0084	–	–	CC(=O)OC[C@H]1O[C@@H](NC(=S)NCc2ccc(S(N)(=O)=O)cc2)[C@H](OC(C)=O)[C@@H](OC(C)=O)[C@@H]1O[C@H]1O[C@H](COC(C)=O)[C@@H](OC(C)=O)[C@H](OC(C)=O)[C@H]1OC(C)=O
0.0064	5.9	0.0106	0.0081	–	–	CC(=O)OC[C@H]1O[C@@H](O[C@H]2[C@H](OC(C)=O)[C@@H](OC(C)=O)[C@H](NC(=S)NNC(=O)c3ccc(S(N)(=O)=O)cc3)O[C@@H]2COC(C)=O)[C@H](OC(C)=O)[C@@H](OC(C)=O)[C@H]1OC(C)=O
0.0098	3.72	0.0087	0.0084	–	0.122	CC(=O)OC[C@H]1O[C@@H](NC(=S)NCCc2ccc(S(N)(=O)=O)cc2)[C@H](OC(C)=O)[C@@H](OC(C)=O)[C@@H]1O[C@H]1O[C@H](COC(C)=O)[C@@H](OC(C)=O)[C@H](OC(C)=O)[C@H]1OC(C)=O
0.0087	3.77	0.0091	0.0481	–	0.362	CC(=O)OC[C@H]1O[C@@H](O[C@H]2[C@H](OC(C)=O)[C@@H](OC(C)=O)[C@H](NC(=S)NCCc3ccc(S(N)(=O)=O)cc3)O[C@@H]2COC(C)=O)[C@H](OC(C)=O)[C@@H](OC(C)=O)[C@H]1OC(C)=O
0.01	3.77	0.0103	0.0073	–	0.0087	CC(=O)OC[C@H]1O[C@@H](NC(=S)NNC(=O)c2ccc(S(N)(=O)=O)cc2)[C@H](OC(C)=O)[C@@H](OC(C)=O)[C@@H]1OC(C)=O
0.0078	0.1	0.0085	0.0075	–	–	CC(=O)OC[C@H]1O[C@@H](NC(=S)NCc2ccc(S(N)(=O)=O)cc2)[C@H](OC(C)=O)[C@@H](OC(C)=O)[C@@H]1OC(C)=O
0.0093	5.79	0.108	0.0102	> 20	0.0028	NS(=O)(=O)c1ccc(CCNC(=S)N[C@@H]2O[C@H](CO)[C@H](O)[C@H](O)[C@H]2O)cc1

— ChEMBL document CHEMBL1955849, “Design and synthesis of thiourea compounds that inhibit transmembrane anchored carbonic anhydrases” (Bioorg Med Chem, 2012)
